Literature values, collected in patent publication US9227980B2, “Methods for the purification of cucurbituril” (CAMBRIDGE ENTERPRISE LIMITED, priority 2009, dated 2016).

Question: For `O=C1N2CN3C(=O)N4CN5C(=O)N6CN7C(=O)N8CN9C(=O)N%10CN1C1C2N2CN%11C(=O)N(CN%12C(=O)N(CN%13C(=O)N(CN%14C(=O)N(CN1C2=O)C%10C9%14)C8C7%13)C6C5%12)C4C3%11` (centres unmarked) [CB[5]], which “solubility in water (qualitative)” value is on record?
Answer: soluble in water

Question: For `O=C1N2CN3C(=O)N4CN5C(=O)N6CN7C(=O)N8CN9C(=O)N%10CN%11C(=O)N%12CN1C1C2N2CN%13C(=O)N(CN%14C(=O)N(CN%15C(=O)N(CN%16C(=O)N(CN%17C(=O)N(CN1C2=O)C%12C%11%17)C%10C9%16)C8C7%15)C6C5%14)C4C3%13` (centres unmarked) [CB[6]], which “solubility in water (qualitative)” value is on record?
Answer: are not
